This is an account of results in patent publication US20130217664A1, “NOVEL COMPOUNDS USEFUL FOR THE TREATMENT OF DEGENERATIVE AND INFLAMMATORY DISEASES” (priority 2012, published 2013).

Common to all, as to assay type: biochemical
One experiment has as its target T1, human TYK2 (Homo sapiens, UniProt P29597).
T1 construct: catalytic domain (amino acids 871-1187; catalog number 08-147); purchased Carna Biosciences 08-147
T1 sequence (P29597 871-1187): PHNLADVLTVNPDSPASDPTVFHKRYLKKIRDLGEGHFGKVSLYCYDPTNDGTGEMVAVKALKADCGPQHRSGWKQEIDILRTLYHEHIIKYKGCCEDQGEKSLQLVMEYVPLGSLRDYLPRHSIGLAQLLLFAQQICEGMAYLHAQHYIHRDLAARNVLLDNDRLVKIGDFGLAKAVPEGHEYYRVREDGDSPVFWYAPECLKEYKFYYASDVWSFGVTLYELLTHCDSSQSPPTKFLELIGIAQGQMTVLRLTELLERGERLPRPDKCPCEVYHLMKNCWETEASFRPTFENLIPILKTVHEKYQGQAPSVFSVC
Description: TYK2 inhibition assay. The following applies: recombinant human TYK2 catalytic domain, polyGT substrate. The method, boiled down:
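Radiometric kinase reaction run 90 min at 30 °C, stopped with phosphoric acid, washed and scintillation-counted.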

For the next experiment, the target named is T2, human JAK1 (Homo sapiens, UniProt P23458).
T2 construct: catalytic domain, amino acids 866-1154; catalog number PV4774; purchased Invitrogen PV4774
Description: JAK1 inhibition assay (polyGT substrate / Ulight-JAK1 peptide). The following applies: recombinant human JAK1 catalytic domain; polyGT or Ulight-JAK1 peptide assay. The method, boiled down: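 Signal scaled between vehicle and 10 μM staurosporine. Radiometric polyGT reactions ran 45 min at 30 °C, counted after phosphoric-acid stop. Ulight peptide reactions ran 60 min at room temperature, fluorescence read after adding Eu-PT66 detection mix with EDTA.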

A further experiment addresses T3, human JAK2 (Homo sapiens, UniProt O60674).
T3 construct: catalytic domain (amino acids 808-1132; catalog number PV4210); GST; purchased Invitrogen PV4210
Nature of the experiment: JAK2 inhibition assay (polyGT substrate / Ulight-JAK1 peptide). The following applies: recombinant human JAK2 catalytic domain; polyGT or Ulight-JAK1 peptide assay. The essentials:
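Two JAK2 formats: a ^33P-ATP polyGT assay (1 μM cold ATP, 90 min, 30° C., cpm read-out) and a Ulight-JAK1 peptide assay read by Europium-anti-phosphotyrosine fluorescence after 60 min at room temperature.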

T2 sequence (P23458 866-1154): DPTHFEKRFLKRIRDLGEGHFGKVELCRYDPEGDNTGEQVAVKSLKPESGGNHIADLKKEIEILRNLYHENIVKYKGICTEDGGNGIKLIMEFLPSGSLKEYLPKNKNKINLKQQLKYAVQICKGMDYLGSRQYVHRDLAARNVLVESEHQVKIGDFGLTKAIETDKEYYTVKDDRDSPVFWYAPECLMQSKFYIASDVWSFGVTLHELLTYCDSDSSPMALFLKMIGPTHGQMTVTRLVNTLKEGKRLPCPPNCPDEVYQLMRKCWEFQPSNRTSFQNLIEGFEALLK
T3 sequence (O60674 808-1132): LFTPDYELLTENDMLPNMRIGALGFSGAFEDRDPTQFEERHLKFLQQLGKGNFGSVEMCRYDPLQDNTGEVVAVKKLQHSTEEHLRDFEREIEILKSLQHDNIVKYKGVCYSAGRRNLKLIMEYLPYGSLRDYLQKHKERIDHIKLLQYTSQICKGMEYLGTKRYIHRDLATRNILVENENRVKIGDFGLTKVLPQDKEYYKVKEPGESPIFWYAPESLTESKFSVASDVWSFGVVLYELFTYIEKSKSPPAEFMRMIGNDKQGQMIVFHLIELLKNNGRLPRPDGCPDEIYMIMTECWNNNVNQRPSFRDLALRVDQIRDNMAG

As for `CCc1cc(C(=O)NCCN(C)C)ccc1N(C)c1cc2c(cn1)ncn2C` [Compound 119, N-(2-(dimethylamino)ethyl)-3-ethyl-4-(methyl(1-methyl-1H-imidazo[4,5-c]pyridin-6-yl)amino)benzamide], the results for the IC50 on human TYK2, on human JAK1 and on human JAK2 were more than 1000 nM, 0.01 to 100 nM and more than 1000 nM, respectively.
As to `CCc1cc(C(=O)NCC#N)ccc1N(C)c1cc2c(cn1)ncn2C` [Compound 120, N-(cyanomethyl)-3-ethyl-4-(methyl(1-methyl-1H-imidazo[4,5-c]pyridin-6-yl)amino)benzamide], the IC50 (commonly the concentration needed to halve the response being measured) at human TYK2 lay in the range of 101 to 500 nM; at human JAK1 it was 0.01 to 100 nM; at human JAK2, 101 to 500 nM.
As to `CCc1ccc(C(=O)NC(C)(C)C)cc1N(C)c1cc2c(cn1)ncn2C` [Compound 123, N-tert-butyl-4-ethyl-3-(methyl(1-methyl-1H-imidazo[4,5-c]pyridin-6-yl)amino)benzamide], the IC50 on human TYK2 was more than 1000 nM; at human JAK1, 0.01 to 100 nM; on human JAK2, more than 1000 nM.
For the compound `CCc1cc(-c2ccsc2)ccc1N(C)c1cc2c(cn1)ncn2C` [Compound 127, N-(2-ethyl-4-(thiophen-3-yl)phenyl)-N,1-dimethyl-1H-imidazo[4,5-c]pyridin-6-amine], the IC50 on human TYK2 fell in the range of 0.01 to 100 nM; on human JAK1 it was 0.01 to 100 nM; at human JAK2 it was 101 to 500 nM.
Consider `CCc1cc(-c2ccc(CNC(=O)OC(C)(C)C)s2)ncc1N(C)c1cc2c(cn1)ncn2C` [Compound 302], for which the values for the IC50 at human TYK2, at human JAK1 and at human JAK2 were 101 to 500 nM, 0.01 to 100 nM and 101 to 500 nM, respectively.
For `CCc1cc(-c2ccc(CN)s2)ncc1N(C)c1cc2c(cn1)ncn2C` [Compound 303, [6-(5-Aminomethyl-thiophen-2-yl)-4-ethyl-pyridin-3-yl]-methyl-(1-methyl-1H-imidazo[4,5-c]pyridin-6-yl)-amine], the 50% inhibitory concentration (IC50) at human TYK2 was more than 1000 nM; at human JAK1, 501 to 1000 nM; at human JAK2, more than 1000 nM.
In the case of `CCc1cc(-c2ccc(Cl)s2)ncc1N(C)c1cc2c(cn1)ncn2C` [Compound 304, [6-(5-Chloro-thiophen-2-yl)-4-ethyl-pyridin-3-yl]-methyl-(1-methyl-1H-imidazo[4,5-c]pyridin-6-yl)-amine], the IC50 on human TYK2, on human JAK1 and on human JAK2 was 0.01 to 100 nM each time.
As to `CCc1cc(-c2ccc(C)s2)ncc1N(C)c1cc2c(cn1)ncn2C` [Compound 311, [4-Ethyl-6-(5-methyl-thiophen-2-yl)-pyridin-3-yl]-methyl-(1-methyl-1H-imidazo[4,5-c]pyridin-6-yl)-amine], the IC50 at human TYK2, at human JAK1 and at human JAK2 was 0.01 to 100 nM throughout.
On to `COc1cc(-c2c(C)nn(C)c2C)ncc1N(C)c1cc2c(cn1)ncn2C` [Compound 312], for which the IC50 on human TYK2, at human JAK1 and at human JAK2 was more than 1000 nM throughout.
Regarding `COc1cc(N2CCOCC2)ncc1N(C)c1cc2c(cn1)ncn2C` [Compound 313, (4-Methoxy-6-morpholin-4-yl-pyridin-3-yl)-methyl-(1-methyl-1H-imidazo[4,5-c]pyridine-6-yl)-amine], the IC50 at human TYK2 lay in the range of 101 to 500 nM; at human JAK1 it was 0.01 to 100 nM; at human JAK2, 101 to 500 nM.
With `COc1ccc(S(=O)(=O)N2CCCCC2)cc1N(C)c1cc2c(cn1)ncn2C` [Compound 314, [2-Methoxy-5-(piperidine-1-sulfonyl)-phenyl]-methyl-(1-methyl-1H-imidazo[4,5-d]pyridin-6-yl)-amine], the concentration for half-maximal inhibition (IC50) at human TYK2, at human JAK1 and on human JAK2 was more than 1000 nM each time.
On to `COc1cc(S(=O)(=O)N2CCOCC2)ccc1N(C)c1cc2c(cn1)ncn2C` [Compound 315, [2-Methoxy-4-(morpholine-4-sulfonyl)-phenyl]-methyl-(1-methyl-1H-imidazo[4,5-d]pyridin-6-yl)-amine], for which the IC50 at human TYK2, on human JAK1 and at human JAK2 was more than 1000 nM in each case.
Consider `CCc1cn(CCC#N)nc1N(C)c1cc2c(cn1)ncn2C` [Compound 316, 3-{4-Ethyl-3-[methyl-(1-methyl-1H-imidazo[4,5-c]pyridin-6-yl)-amino]-pyrazol-1-yl}-propionitrile], for which the half-maximal inhibitory concentration (IC50) at human TYK2, on human JAK1 and on human JAK2 was more than 1000 nM in each case.
As for `CCc1cc(CN(C)S(C)(=O)=O)c(F)cc1N(C)c1cc2c(cn1)ncn2C` [Compound 319, N-{5-Ethyl-2-fluoro-4-[methyl-(1-methyl-1H-imidazo[4,5-c]pyridin-6-yl)-amino]-benzyl}-N-methyl-methanesulfonamide], the IC50 on human TYK2, at human JAK1 and on human JAK2 was 0.01 to 100 nM each time.
In the case of `CN(c1cc2c(cn1)ncn2C)c1ccc(CNC(=O)C(F)F)cc1F` [Compound 320], the IC50 on human TYK2 lay in the range of 101 to 500 nM; on human JAK1, 0.01 to 100 nM; at human JAK2, 0.01 to 100 nM.
Consider `CCc1cc(C#N)cc(F)c1N(C)c1cc2c(cn1)ncn2C` [Compound 322, 3-Ethyl-5-fluoro-4-[methyl-(1-methyl-M-imidazo[4,5-c]pyridin-6-yl)-amino]-benzonitrile], for which the values for the IC50 on human TYK2, on human JAK1 and on human JAK2 were 101 to 500 nM, 0.01 to 100 nM and 101 to 500 nM, respectively.
As for `CCc1cc(CNS(C)(=O)=O)cc(F)c1N(C)c1cc2c(cn1)ncn2C` [Compound 323, N-{3-Ethyl-5-fluoro-4-[methyl-(1-methyl-1H-imidazo[4,5-c]pyridin-6-yl)-amino]-benzyl}-methanesulfonamide], the IC50 on human TYK2, on human JAK1 and on human JAK2 was 0.01 to 100 nM each time.
As to `CCc1cc(CNS(=O)(=O)C(F)F)cc(F)c1N(C)c1cc2c(cn1)ncn2C` [Compound 324, N-{3-Ethyl-5-fluoro-4-[methyl-(1-methyl-1H-imidazo[4,5-c]pyridin-6-yl)-amino]-benzyl}-C,C-difluoro-methanesulfonamide], the IC50 on human TYK2, on human JAK1 and at human JAK2 was 0.01 to 100 nM each time.
In the case of `CCc1cc(CNS(C)(=O)=O)c(F)cc1N(C)c1cc2c(cn1)ncn2C` [Compound 325, N-{5-Ethyl-2-fluoro-4-[methyl-(1-methyl-1H-imidazo[4,5-c]pyridin-6-yl)-amino]-benzyl}-methanesulfonamide], the IC50 on human TYK2 was in the range of 101 to 500 nM; on human JAK1, 0.01 to 100 nM; at human JAK2 it was 0.01 to 100 nM.
Consider `CCc1cc(CNC(=O)C(F)F)c(F)cc1N(C)c1cc2c(cn1)ncn2C` [Compound 326, N-{5-Ethyl-2-fluoro-4-[methyl-(1-methyl-M-imidazo[4,5-c]pyridin-6-yl)-amino]-benzyl}-2,2-difluoro-acetamide], for which the IC50 is 101 to 500 nM on human TYK2, 0.01 to 100 nM on human JAK1 and 0.01 to 100 nM on human JAK2.
On to `CCc1cc(CNS(=O)(=O)C(F)F)c(F)cc1N(C)c1cc2c(cn1)ncn2C` [Compound 327, N-{5-Ethyl-2-fluoro-4-[methyl-(1-methyl-M-imidazo[4,5-c]pyridin-6-yl)-amino]-benzyl}-C,C-difluoro-methanesulfonamide], for which the IC50 on human TYK2, on human JAK1 and at human JAK2 was 0.01 to 100 nM in each case.
As to `CCc1cc(C2CN(S(C)(=O)=O)C2)ncc1N(C)c1cc2c(cn1)ncn2C` [Compound 328, [4-Ethyl-6-(1-methanesulfonyl-azetidin-3-yl)-pyridin-3-yl]-methyl-(1-methyl-1H-imidazo[4,5-c]pyridin-6-yl)-amine], the IC50 is 501 to 1000 nM at human TYK2, 0.01 to 100 nM on human JAK1 and 101 to 500 nM at human JAK2.
As to `CCc1cc(C2CN(S(=O)(=O)C(F)F)C2)ncc1N(C)c1cc2c(cn1)ncn2C` [Compound 329, {6-[1-(Difluoro-methanesulfonyl)-azetidin-3-yl]-4-ethyl-pyridin-3-yl}-methyl-(1-methyl-1H-imidazo[4,5-c]pyridin-6-yl)-amine], the IC50 at human TYK2 was more than 1000 nM; at human JAK1 it was 0.01 to 100 nM; on human JAK2, 0.01 to 100 nM.
For `CCc1cc(C2CN(S(=O)(=O)C(C)C)C2)ncc1N(C)c1cc2c(cn1)ncn2C` [Compound 330, {4-Ethyl-6-[1-(propane-2-sulfonyl)-azetidin-3-yl]-pyridin-3-yl}-methyl-(1-methyl-1H-imidazo[4,5-c]pyridin-6-yl)-amine], the IC50 on human TYK2 is more than 1000 nM; on human JAK1, 0.01 to 100 nM; on human JAK2 it was 101 to 500 nM.
The like results for `CCc1cc(C2CN(CC#N)C2)ncc1N(C)c1cc2c(cn1)ncn2C` [Compound 331, (3-{4-Ethyl-5-[methyl-(1-methyl-1H-imidazo[4,5-c]pyridin-6-yl)-amino]-pyridin-2-yl}-azetidin-1-yl)-acetonitrile] were, in that order, 501 to 1000 nM, 0.01 to 100 nM and 101 to 500 nM.
